Data published in PubChem BioAssay (NCI).
Values joined by “and” are separate entries in the source; they are usually repeats but may differ in a detail not shown here. Equal values may be shown once.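 1) Cells in 96-well plates. 2) Compound, 48 h, 5 concentrations. 3) Linear interpolation between surrounding doses. 4) Unreached endpoint = highest concentration. GI50: concentration for 50% inhibition of growth. TGI denotes the concentration required for complete inhibition of growth.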

Legend:
Assay in all cases: inhibition of tumour cell growth, NCI panel, 48 h
786-0 renal = tested on: 786-0 renal
A549 NSCLC = tested on: A549 NSCLC
ACHN renal = tested on: ACHN renal
CCRF-CEM leukemia = tested on: CCRF-CEM leukemia
EKVX NSCLC = tested on: EKVX NSCLC
OVCAR-3 ovarian = tested on: OVCAR-3 ovarian
RXF 393 renal = tested on: RXF 393 renal
SK-MEL-2 melanoma = tested on: SK-MEL-2 melanoma
SK-MEL-28 melanoma = tested on: SK-MEL-28 melanoma
SNB-19 CNS = tested on: SNB-19 CNS

| Structure (SMILES) | GI50 (786-0 renal) | TGI (786-0 renal) | GI50 (A549 NSCLC) | TGI (A549 NSCLC) | GI50 (ACHN renal) | TGI (ACHN renal) | GI50 (CCRF-CEM leukemia) | TGI (CCRF-CEM leukemia) | GI50 (EKVX NSCLC) | TGI (EKVX NSCLC) | GI50 (OVCAR-3 ovarian) | TGI (OVCAR-3 ovarian) | GI50 (RXF 393 renal) | TGI (RXF 393 renal) | GI50 (SK-MEL-2 melanoma) | TGI (SK-MEL-2 melanoma) | GI50 (SK-MEL-28 melanoma) | TGI (SK-MEL-28 melanoma) | GI50 (SNB-19 CNS) | TGI (SNB-19 CNS) |
| --- | --- | --- | --- | --- | --- | --- | --- | --- | --- | --- | --- | --- | --- | --- | --- | --- | --- | --- | --- | --- |
| Cc1cccc2c(N)c3ccccc3nc12 | 1.54 µM | 7.49 µM | 1.02 µM | 4.02 µM | 0.561 µM | 14.5 µM | 2.54 µM | 10.2 µM | 2.76 µM | 9.99 µM | 2.13 µM | 10 µM | 1.36 µM | 3.72 µM | 1.68 µM | 3.84 µM | 2.34 µM | 6.53 µM | 2.06 µM | 16.7 µM |
| CC(=O)Oc1ccc(C(c2ccc(OC(C)=O)cc2)c2ccccn2)cc1 | – | > 100 µM | 49.7 µM | > 100 µM | 36.8 µM | > 100 µM | 43 µM | > 100 µM | – | > 100 µM and 57.1 µM | 9.94 µM | 98.9 µM and 23.2 µM | 3.67 µM | 96.9 µM and > 95.7 µM | 43.1 µM | > 100 µM | 61.5 µM | > 100 µM | – | > 100 µM |
| CNC(=O)OCC1C2=C(C(=O)C(C)=C(N)C2=O)N2CC3C(N3C)C12OC (configuration not stated) | – | 21.2 µM | – | 29.5 µM | – | 26.7 µM | – | > 100 µM | – | > 100 µM | – | > 100 µM | – | 57.1 µM | – | 55.7 µM | – | > 100 µM | – | > 100 µM |
| N#CC1=C(Cl)NC(Cl)=C(C#N)C1c1c(Cl)cccc1Cl | – | 68.5 µM | – | 83.6 µM | – | > 100 µM | – | 54.5 µM | – | > 100 µM | – | 64.4 µM | – | 59 µM | – | > 100 µM | – | > 100 µM | – | > 100 µM |
| O=C1OC(c2ccccc2)=N/C1=C\c1cccc(F)c1 | – | > 100 µM | – | > 100 µM | – | > 100 µM | – | 72.7 µM | – | > 100 µM | – | > 100 µM | – | > 100 µM | – | > 100 µM | – | > 100 µM | – | > 100 µM |
| O=S(=O)(C/C(=N\O)c1ccccc1)c1ccccc1 | – | > 100 µM | – | > 100 µM | – | > 100 µM | – | > 100 µM | – | > 100 µM | – | > 100 µM | – | > 100 µM | – | > 100 µM | – | > 100 µM | – | > 100 µM |
| Cn1cnc([N+](=O)[O-])c1Sc1ncn[nH]1 | > 100 µM | > 100 µM | > 100 µM | > 100 µM | 76.1 µM | > 100 µM | 28.6 µM | > 100 µM | > 100 µM | > 100 µM | 47.3 µM | > 100 µM | 29 µM | > 100 µM | 40.9 µM | > 100 µM | > 100 µM | > 100 µM | > 100 µM | > 100 µM |
| Clc1nc(Cl)c2ncn(Cc3ccc(Cn4cnc5c(Cl)nc(Cl)nc54)cc3)c2n1 | 1.6 µM | 11.2 µM | 11.5 µM | 25.5 µM | 5.16 µM | 20.4 µM | – | 1.84 µM | – | 25 µM | 8.68 µM | 25.6 µM | – | 0.555 µM | 10.8 µM | 34.9 µM | – | 28.3 µM | 76.2 µM | > 100 µM |
| Cc1cc2c(C)n(Cc3ccc(Cl)cc3Cl)nc2c(C(=O)O)c1C | – | > 100 µM | – | > 100 µM | – | > 100 µM | – | > 100 µM | – | > 100 µM | – | > 100 µM | – | > 100 µM | – | > 100 µM | – | > 100 µM | – | > 100 µM |
| CCn1c2ccccc2c2cc(C(O)c3cccc4ncccc34)ccc21 (configuration not stated) | 0.0559 µM | 7.29 µM | 0.0684 µM | > 49.4 µM | 0.0715 µM | 41.9 µM | 0.0484 µM | > 100 µM | 0.0864 µM | > 100 µM | 0.0422 µM | 39.9 µM | 0.0518 µM | – | 0.0543 µM | 39.4 µM | 3.47 µM | > 100 µM | 0.0437 µM | 34.7 µM |
| COc1cc(/C=C/C(=O)c2cccnc2Nc2ccc(F)cc2)cc(OC)c1OC | 3.9 µM | 13 µM | 2.66 µM | 11.5 µM | 2.84 µM | 7.2 µM | 2.45 µM | 9.87 µM | 3.94 µM | > 100 µM | 2.63 µM | 6.61 µM | 2.81 µM | 8.97 µM | 2.52 µM | 5.26 µM | 3.22 µM | 17.3 µM | 3.73 µM | 33.2 µM |
| O=[N+]([O-])c1ccc(Cl)cc1C1SCc2nc3ccccc3n21 (configuration not stated) | – | > 100 µM | – | > 100 µM | – | 27.4 µM | – | > 100 µM | – | > 100 µM | – | > 100 µM | – | 73.3 µM | – | > 100 µM | – | > 100 µM | – | > 100 µM |
| COC(=O)C1=CC2OC1(C)CCC2=O (configuration not stated) | – | > 100 µM | – | > 100 µM | – | > 100 µM | – | > 100 µM | – | > 100 µM | – | > 100 µM | – | > 100 µM | – | > 100 µM | – | > 100 µM | – | > 100 µM |
| Cc1cc(OCc2nnc3n2N=C(c2ccc(Cl)cc2Cl)CS3)ccc1Cl | > 100 µM | > 100 µM | 56.3 µM | > 100 µM | 45.4 µM | > 100 µM | 42.2 µM | > 100 µM | 6.89 µM | 81.2 µM | 35.9 µM | > 100 µM | 52.2 µM | > 100 µM | 76.2 µM | > 100 µM | 79.3 µM | > 100 µM | 97.2 µM | > 100 µM |
| CC(C)CCN[C@@H]1CCc2cc(O)c(N3CC(=O)NS3(=O)=O)c(F)c2C1 | > 100 µM | > 100 µM | > 100 µM | > 100 µM | > 100 µM | > 100 µM | > 100 µM | > 100 µM | > 100 µM | > 100 µM | > 100 µM | > 100 µM | 0.812 µM | 8.01 µM | > 100 µM | > 100 µM | > 100 µM | > 100 µM | > 100 µM | > 100 µM |
| O=C(O)/C=C/C(=O)N1C/C(=C\c2ccccc2)C(=O)/C(=C/c2ccccc2)C1 | – | 10.6 µM | – | 52 µM | – | 20.9 µM | – | 7.18 µM | – | 44.3 µM | – | 15.6 µM | – | 17.5 µM | – | 17.2 µM | – | 15.9 µM | – | 23.6 µM |
